Consider seven compounds from patent US20110281951A1, “Compositions and methods for treating amyloidosis” (priority 1999, published 2011).

Common to all, as to type: biochemical
The target in assay [1] is T1, IAPP (Homo sapiens, UniProt P10997).
T1 sequence (P10997 34-70 limits assumed): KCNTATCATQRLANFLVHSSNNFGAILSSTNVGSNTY
Description: CD analysis of IAPP fibril formation (Example 4). The arrangement: add 10 μL of 10 mg/mL IAPP stock solution (final 100 ng peptide).

For assay [2], the target named is T2, Aβ42 (Homo sapiens, UniProt P05067).
T2 construct: Stock solution of Aβ42 or Aβ40 peptide at 5 mg/ml in distilled water, pH 7; made in house; host or cells: chemical synthesis (FMOC), HPLC purified
Briefly: Solubility assay using Bradford detection (Aβ fibril formation). The note with it: roughly 1:10 peptide:compound, overnight at room temperature, 10 mM phosphate buffer pH 7. Here is the method: Alternatively, peptides can also be obtained from a number of commercial sources (e.g., BaChem and Peninsula Laboratories, California). The assay was conducted as follows. Stock solution of Aβ42 or Aβ40 peptide at 5 mg/ml in distilled water, pH 7, and stock solutions of each test compound at 2 mg/ml in distilled water, pH 7 were prepared. • 1. Mix 5 μl (25 μg) of stock Aβ and 12.5 μl (25 μg) of stock test compounds into 1000 μl of 10 mM phosphate buffer, pH 7. This provides a molar ratio of roughly 1:10 [ peptide:compound] assuming a general molecular weight of 400 daltons for the test compounds. Control samples were prepared for both peptide and compound. These contained Aβ only using both 25 μg (5 μl stock Aβ) and 50 μg ([…]) to provide a standard curve for each run. Test compound controls contained 25 μg of material (12.5 μl of stock). All samples were mixed in 1000 μl of 10 mM phosphate buffer, pH 7 to final volume of 1017.5 μl. • 2. Incubate all samples overnight at room temperature without mixing. • 3. Spin at 14,000 rpm for 10 min in table top Eppendorf microfuge. • 4. Take 800 μl of supernatant. • 5. Add 200 μl of Bradford reagent (purchased from BioRad). • 6. Mix well by vortexing. • 7. Read at OD595 nm.

Assay [3] deals with T3, Aβ(1-40) (Homo sapiens, UniProt P05067).
T3 construct: Prepare a fresh 40 μm solution of Aβ(1-40) in 0.02M Tris, pH 7.4; made in house; host or cells: chemical synthesis (FMOC), HPLC purified
Description: Circular dichroism analysis, pre-incubation assay, β-sheet at 218 nm. The settings on record: CD 218 nm, 0.02M Tris pH 7.4. Here is the method: The assay is conducted as follows:
Instrument: JASCO J-715 Spectropolarimeter.
Cell/cuvette: Hellma quartz (QS) with 1.0 mm pathlength Room temperature. Wavelength interval: 250 nm-190 nm.
Band width: 1.0 nm Response time: 1 sec Scanning speed: 20 nm/min Number of accumulations/spectrum: 5
1. Prepare a fresh 40 μm solution of Aβ(1-40) in 0.02M Tris, pH 7.4.
2. Prepare a 1 mM solution of test compounds in 0.02M Tris, pH 7.4.
3. Combine equal volumes of the Aβ(1-40) and test compound solutions.
4. Incubate the mixtures for 19 h.
5. Take the CD spectrum using the parameters above.
6. Return the mixtures to the incubator and incubate to 43 h.
7. Take the CD spectrum using the parameters above. • Inhibition of Aβ40 assembly/aggregation is determined by comparing the amount of b-sheet structure) appearing at lambda=218 nm) obtained in control and in treated sample at each timepoint.
In general terms: Circular dichroism is the unequal absorption of left and right circularly polarised light.

Assay [4] concerns the target T4, Aβ42 peptide (Homo sapiens, UniProt P05067).
T4 construct: Stock solution of Aβ42 or Aβ40 peptide at 5 mg/ml in distilled water, pH 7; made in house; host or cells: chemical synthesis (FMOC), HPLC purified
Description: ELISA solubility assay (Aβ fibril formation). The note with it: 1:10 peptide:compound, overnight at room temperature, 10 mM phosphate buffer. The protocol: The assay was conducted as follows. Stock solution of Aβ42 peptide at 5 mg/ml in distilled water, pH 7, and stock solutions of each test compound at 1 mg/ml in distilled water, pH 7 were prepared. • 1. A 10 μg sample of peptide was mixed with compound at a molar ratio of 1:10 [ peptide:compound] in 500 μl of 10 mM phosphate buffer. Control samples contained peptide only. • 2. The mixture was incubated overnight at room temperature without agitation. • 3. The incubated mixture was centrifuged at 14,000 rpm (Eppendorf microfuge) for 5 minutes to separate the soluble peptide. • 4. 400 μl aliquots of supernatant were removed for ELISA assay.
ELISA • 1. 100 μl of prepared samples were coated in 96 wells NUNC microplates (each sample tested in triplicate) • 2. The plate was incubated at 37° C. for 3 hours, then at 4° C. overnight. • 3. The wells were washed twice with 0.05% Tween 20 in phosphate buffered saline. • 4. 250 μl of 3% skim milk powder in PBS was used to block non-specific binding to the wells (at 37° C. for 1.5 hours) • 5. The wells were washed with 0.05% Tween 20/PBS twice. • 6. A 100 μl aliquot of diluted (final dilution 1:100 in PBS) mouse monoclonal anti-Aβ antibody (purchased from DAKO recognizing the N-terminal residues 1-10) was added to each well. The antibody was then incubated at 37 C for 2 Hours. • 7. The wells were washed with 0.05% Tween 20/PBS six times (5 min/wash). • 8. Visualization was performed using 100 μl of diluted goat anti-mouse IgG (H^+ L) conjugated with alkaline phosphatase (purchased from BioRad) was added to each well. The plate was incubated at 37° C. for 1 hour. • 9. The wells were washed with 0.05% Tween 20/PBS six times (5 min/wash). • 10. The color reaction was developed using 100 μl of alkaline phosphatase substrate (purchased from BioRad) which was added to each well. • 11. The relative amounts of Aβ were obtained by measuring the OD of the sample at 405 nm using a standard ELISA plate reader.
Compounds were characterized as “active” if 40-50% of Aβ42 remained in the supernatant.

T3 sequence (P05067 672-711 limits assumed): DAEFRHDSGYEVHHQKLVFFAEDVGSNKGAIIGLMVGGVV
T4 sequence (P05067 672-713 limits assumed): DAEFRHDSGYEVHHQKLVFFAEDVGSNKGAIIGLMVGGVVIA
T2 sequence (P05067 672-713 limits assumed): as above

For the compound `O=S(=O)(O)CCCNC1(CO)CCCC1` [XLII, 3-(1-hydroxymethyl-1-cyclopentyl)amino-1-propanesulfonic acid], the “Activity (preventing or inhibiting IAPP fibril formation)” value in assay [1] is “Active”.

As for `O=S(=O)(O)CCCN1CCc2ccccc2C1` [XVII, 3-[2-(1,2,3,4-tetrahydroisoquinolinyl)]-1-propanesulfonic acid], the “Aβ42 remaining in the supernatant (activity class)” value (“Aβ42 remaining in the supernatant” for short) in assay [2] was “Active”. Besides, in assay [3], the “relative inhibition compared to Aβ alone, incubation time 0 h” value is recorded as “—^1, 2 (No effect compared to Aβ alone)”; the “relative inhibition compared to Aβ alone, incubation time 19 h” value is on record as “+ (+: 0-25%)”; the “relative inhibition compared to Aβ alone, incubation time 43 h” value is given as “++ (++: 25-50%)”.

In the case of `C=CC(=O)NC(C)(C)CS(=O)(=O)O` [XXI, 2-acrylamido-2-methyl-1-propanesulfonic acid], the “Aβ42 remaining in the supernatant” value in assay [4] was “Active”.

As to `CC12CC3CC(C)(C1)CC(NCCCS(=O)(=O)O)(C3)C2` [XXIV, 3-[(−3,5-dimethyl-1-adamantyl)-amino]-1-propanesulfonic acid], the “Aβ42 remaining in the supernatant” value in assay [4] was “Active”.

Take `COc1cc(-c2ccc(N=Nc3ccc4c(S(=O)(=O)[O-])cc(S(=O)(=O)[O-])c(N)c4c3O)c(OC)c2)ccc1N=Nc1ccc2c(S(=O)(=O)[O-])cc(S(=O)(=O)[O-])c(N)c2c1O.[Na+].[Na+].[Na+].[Na+]` [XXIX, Chicago Sky Blue 6B]: the “Aβ42 remaining in the supernatant” value in assay [2] is listed as “Very active”.

As to `Cc1ccc2nc(-c3ccc(N=NNc4ccc(-c5nc6ccc(C)c(S(=O)(=O)[O-])c6s5)cc4)cc3)sc2c1S(=O)(=O)[O-].[Na+].[Na+]` [XXVIII, Thiazol Yellow G], the “Aβ42 remaining in the supernatant” value in assay [4] is “Active”.

As for `CC(CCCO)NCCCS(=O)(=O)O` (stereo not drawn) [XXXVIII, 3-[(dl)-5-hydroxy-2-pentyl]amino-1-propanesulfonic acid], in assay [3], the “relative inhibition compared to Aβ alone, incubation time 0 h” value is on record as “— (No effect compared to Aβ alone)”; the “relative inhibition compared to Aβ alone, incubation time 19 h” value is given as “+++ (+++: 50-75%)”; the “relative inhibition compared to Aβ alone, incubation time 43 h” value was “++ (++: 25-50%)”. Further, the “Activity (preventing or inhibiting IAPP fibril formation)” value in assay [1] was “Active”.
